ChEMBL document CHEMBL1201862, “PubChem BioAssay data set” (2004)
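Tested at 5 concentrations; 48 h exposure; 96-well plates; endpoints linearly interpolated, else capped at highest concentration. Abbreviation: GI50, concentration required for 50% inhibition of growth.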 Activity calls are given as the source filed them. Cut-off read from the data, not from the text of the source: active = GI50 up to about 1.1 µM and inactive = higher.

How the values were obtained:
Assay in all cases: NCI tumour cell line growth inhibition, 48 h
PC-3 = tested on: PC-3
UO-31 = tested on: UO-31
KM12 = tested on: KM12
HCT-116 = tested on: HCT-116
A498 = tested on: A498
SK-MEL-2 = tested on: SK-MEL-2
OVCAR-5 = tested on: OVCAR-5
OVCAR-3 = tested on: OVCAR-3
COLO 205 = tested on: COLO 205
T47D = tested on: T47D
A549 = tested on: A549
SW-620 = tested on: SW-620
OVCAR-4 = tested on: OVCAR-4
K562 = tested on: K562
RPMI-8226 = tested on: RPMI-8226
SF-539 = tested on: SF-539
SNB-75 = tested on: SNB-75
LOX IMVI = tested on: LOX IMVI
NCI-H226 = tested on: NCI-H226

Measured: GI50

CC1=NN(C(=O)CC(=O)Nc2ccccc2C)C(=O)C1/N=N/c1ccc(C(=O)O)cc1 (configuration not stated)
inactive: PC-3 > 100 µM | UO-31 48.6 µM | KM12 > 100 µM | HCT-116 > 100 µM | A498 > 100 µM | SK-MEL-2 > 100 µM | OVCAR-5 > 100 µM | OVCAR-3 > 100 µM | COLO 205 > 100 µM | T47D 44.1 µM | A549 > 100 µM | SW-620 > 100 µM | OVCAR-4 > 100 µM | K562 > 100 µM | RPMI-8226 > 100 µM | SF-539 > 100 µM | SNB-75 70.5 µM | LOX IMVI 79.3 µM

Cc1ccc(O)c(-c2cc(-c3cccc(Br)c3)on2)c1
inactive: PC-3 45.6 µM | UO-31 70.3 µM | KM12 20.3 µM | HCT-116 20 µM | A498 68.9 µM | SK-MEL-2 21.5 µM | OVCAR-5 35.8 µM | OVCAR-3 19.1 µM | COLO 205 18.2 µM | T47D 28.2 µM | A549 29.4 µM | SW-620 19.8 µM | OVCAR-4 11.6 µM | K562 29.6 µM | RPMI-8226 25.2 µM | SF-539 28.8 µM | SNB-75 12.2 µM | LOX IMVI 16.3 µM

CC(C(=O)N1C(=O)N(C(=O)C(C)C(O)c2ccccc2)C2CCCCC21)C(O)c1ccccc1 (configuration not stated)
inactive: UO-31 34.6 µM | KM12 37.1 µM | HCT-116 > 100 µM | SK-MEL-2 30.3 µM | OVCAR-5 > 100 µM | OVCAR-3 78.2 µM | COLO 205 > 100 µM | A549 44.3 µM | SW-620 > 100 µM | OVCAR-4 57.4 µM | K562 > 10 µM | RPMI-8226 34 µM | LOX IMVI 79.4 µM

Cc1ccc(C)c(NC(=O)C(=O)C2C(=O)N(c3ccccc3)N=C2N)c1 (configuration not stated)
inactive: NCI-H226 > 100 µM | UO-31 > 100 µM | KM12 > 100 µM | HCT-116 > 100 µM | A498 > 100 µM | SK-MEL-2 > 100 µM | OVCAR-5 > 100 µM | OVCAR-3 > 100 µM | A549 > 100 µM | SW-620 > 100 µM | OVCAR-4 > 100 µM | K562 90.2 µM | RPMI-8226 > 100 µM | SF-539 > 100 µM | SNB-75 > 100 µM | LOX IMVI > 100 µM

Cc1c(S(=O)(=O)N/C(=N\O)Nc2ccc(Cl)cc2)sc2ccc(Cl)cc12
inactive: NCI-H226 17.7 µM | PC-3 17.1 µM | UO-31 35.8 µM | KM12 18.4 µM | HCT-116 13.9 µM | SK-MEL-2 18.7 µM | OVCAR-5 18.1 µM | OVCAR-3 11.3 µM | COLO 205 15.9 µM | T47D 19 µM | A549 16.4 µM | SW-620 25.1 µM | OVCAR-4 16.9 µM | K562 31 µM | SF-539 21.5 µM | SNB-75 18.7 µM | LOX IMVI 17 µM

OC(C1CCCCCCCCCC1)C(O)C1CCCCCCCCCC1 (configuration not stated)
inactive: NCI-H226 > 100 µM | PC-3 > 100 µM | UO-31 > 100 µM | KM12 > 100 µM | HCT-116 > 100 µM | SK-MEL-2 > 100 µM | OVCAR-5 > 100 µM | OVCAR-3 > 100 µM | COLO 205 > 100 µM | T47D > 100 µM | A549 > 100 µM | SW-620 > 100 µM | OVCAR-4 > 100 µM | K562 55.1 µM | RPMI-8226 > 100 µM | SF-539 > 100 µM | SNB-75 > 100 µM | LOX IMVI > 100 µM

Cc1cccc(Nc2cn(CCOc3ccccc3)c(=O)[nH]c2=O)c1
inactive: PC-3 23.4 µM | UO-31 21.4 µM | KM12 31.3 µM | HCT-116 27.5 µM | A498 > 100 µM | OVCAR-5 19.4 µM | OVCAR-3 18.7 µM | COLO 205 18.8 µM | A549 22.7 µM | SW-620 > 100 µM | OVCAR-4 69.5 µM | K562 58.6 µM | RPMI-8226 34 µM | LOX IMVI 11.9 µM

OCC1OC(NC(=S)NCCC(F)(F)C(F)(F)C(F)(F)C(F)(F)C(F)(F)C(F)(F)F)C(O)C(O)C1O (configuration not stated)
inactive: PC-3 43 µM | UO-31 > 100 µM | KM12 > 100 µM | HCT-116 80.4 µM | A498 18.5 µM | SK-MEL-2 > 100 µM | OVCAR-5 > 100 µM | OVCAR-3 > 100 µM | COLO 205 > 100 µM | T47D > 100 µM | A549 > 100 µM | SW-620 > 100 µM | OVCAR-4 > 100 µM | K562 28.2 µM | RPMI-8226 > 100 µM | SF-539 > 100 µM | SNB-75 > 100 µM | LOX IMVI 49.5 µM
